Test results: paper PMC10125213 (Journal of Molecular Biology, 2023)

Legend:
Format in all cases: binding, SARS-CoV-2
Omicron (BA.1) S protein = Omicron (BA.1) S protein (Severe acute respiratory syndrome coronavirus 2, UniProt P0DTC2, A67V/D614G/D796Y/DEL143-145/DEL211-211/DEL69-70/E484A/G142D/G339D/G446S/G496S/H655Y/INS214EPE/K417N/L212I/L981F/N440K/N501Y/N679K/N764K/N856K/N969K/P681H/Q493K/Q498R/Q954H/S371L/S373P/S375F/S477N/T478K/T547K/T95I/Y505H)
BA.2 S protein = BA.2 S protein (Severe acute respiratory syndrome coronavirus 2, UniProt P0DTC2, A27S/D405N/D614G/D796Y/DEL24-26/E484A/G142D/G339D/H655Y/K417N/N440K/N501Y/N679K/N764K/N969K/P681H/Q493R/Q498R/Q954H/R408S/S371F/S373P/S375F/S477N/T19I/T376A/T478K/V213G/Y505H)
BA.4/5 S protein = BA.4/5 S protein (Severe acute respiratory syndrome coronavirus 2, UniProt P0DTC2, A27S/D405N/D614G/D796Y/DEL24-26/DEL69-70/E484A/F486V/G142D/G339D/H655Y/K417N/L452R/N440K/N501Y/N679K/N764K/N969K/P681H/Q498R/Q954H/R408S/S371F/S373P/S375F/S477N/T19I/T376A/T478K/V213G/Y505H)
Omicron RBD = Omicron RBD (Severe acute respiratory syndrome coronavirus 2, UniProt P0DTC2, E484A/G339D/G446S/G496S/K417N/N440K/N501Y/Q493K/Q498R/S371L/S373P/S375F/S477N/T478K/Y505H)
[1] = tested on: RBM mutant RBD protein derived from BA.2
[2] = molecular target: RBM mutant RBD protein derived from BA.4/5 (Severe acute respiratory syndrome coronavirus 2, UniProt P0DTC2, E484A/F486V/L452R/N440K/N501Y/Q498R/S477N/T478K/Y505H)

| Structure (SMILES) | IC50 (Omicron (BA.1) S protein) [mM] | IC50 (BA.2 S protein) [mM] | IC50 (BA.4/5 S protein) [mM] | inhibition of activity of Omicron RBD (Omicron RBD) [%] | sensitivity to TCEP compared to WT protein [1] | sensitivity to TCEP compared to WT protein [2] |
| --- | --- | --- | --- | --- | --- | --- |
| N[C@@H](CCC(=O)N[C@@H](CS)C(=O)NCC(=O)O)C(=O)O [GSH, reduced glutathione] | < 10 | < 10 | < 10 | – | – | – |
| O=C(O)CCP(CCC(=O)O)CCC(=O)O [TCEP, tris-(2-carboxyethyl)phosphine] | – | – | – | > 80 | enhanced sensitivities | enhanced sensitivities |
